Legend:
Format in all cases: cell-based
[1] = system: peripheral blood monocytes; test: Morphological changes in peripheral blood monocytes on lipid-coated wells; conditions: treated with 1 μg/mL lipopolysaccharide, 26 hours
Experimental: Tissue culture flasks coated with bacterial lipids were used as a model of lipid-coated biological surfaces. The HPLC-purified P. gingivalis lipids were dissolved in ethanol and added to the tissue culture plate. The solvent was allowed to evaporate in a laminar flow hood overnight leaving the lipid deposited on the culture well surface. Sham-coated control wells received only ethanol solvent.
Peripheral blood monocytes were plated into 6-well culture dishes previously coated with the indicated lipid fractions (10 μg of lipid/well, 10.5 ng/mm^2) and were incubated for 26 hours. Culture (a) was the sham coating control, (b) was coated with the total lipid extract of P. gingivalis, (c) was coated with the P. gingivalis dihydroceramide fraction, (d) was coated with the phosphoethanolamine lipids and (e) was coated with the phosphoethanolamine dihydroceramide lipid fraction, (f) was treated with 1 μg/mL Salmonella typhimurium lipopolysaccharide.

[2] = system: Human primary gingival fibroblasts; test: Detergent treatment of lipid-bearing surfaces, gingival fibroblast morphology; conditions: 0.1% detergent in PBS, 1 mL on PGDHC-coated wells, 4° C. overnight
Experimental: (§1) Tissue culture flasks coated with bacterial lipids were used as a model of lipid-coated biological surfaces. Human primary gingival fibroblasts were maintained in 10 mm dishes in Minimun Essential Medium (GIBCO Cat #10370) 90% with 10% heat-inactivated FCS, penicillin (100 U/ml) and streptomycin ([…]). The cells were plated onto the 6-well tissue culture plate with individual wells treated as indicated below and grown at 37° C. in a humidified atmosphere of 5% CO2 in air.
(§2) Lipid coating: The HPLC-purified P. gingivalis phosphoglycerol dihydroceramide (PGDHC) was dissolved in ethanol and added to the 6-well tissue culture plate (10 μg of lipid/well, 10.5 ng/mm^2). The solvent was allowed to evaporate in a laminar flow hood overnight leaving the lipid deposited on the culture well surface. Sham-coated control wells received only ethanol solvent.
Detergents: 3-[(3-Cholamidopropyl) dimethylammonio]-1-propanesulfonate (CHAPS), Sodium cholate (Cholate), and Tween-20 (Tween) were dissolved at the concentration of 0.1% in phosphate buffered saline (Gibco cat. 1490). 1 mL of freshly prepared […] was added to the wells coated with P. gingivalis phosphoglycerol dihydroceramide. 1 mL of PBS was added to phosphoglycerol dihydroceramide-coated well as a control. The plate was incubated at 4° C. overnight on a rocking platform.
Detergent treatment of uncoated wells had no effect on primary fibroblasts (data not shown).

[3] = system: Human primary gingival fibroblasts; test: Collagen coating of lipid-bearing surfaces, gingival fibroblast morphology
Experimental: as §1, with “24-well” for “6-well”
as §2, with “dihydroceramide” for “dihydroceramide (PGDHC)”, “24-well” for “6-well”, “(2” for “(10”
Collagen coating: 0.5 mL of 50 μg/mL collagen dissolved in 0.02N Acetic acid was added to the 24-well tissue culture plate, and incubated at 4° C. overnight on a rocking platform. The collagen solution was aspirated, and the wells were washed with PBS.
The treatments were done in triplicate.

Compound	negation of the biological effect of surface-deposited PGDHC [2]	further results
lipopolysaccharide	–	cell clustering of monocytes [1]: did not produce similar cell clustering
polyoxyethylene(20) sorbitan monolaurate [Tween-20]	negated the biological effect of bacterial lipid	–
collagen	–	effect of coating alone on primary fibroblasts ([3]; 0.5 mL of 50 μg/mL collagen, wells without lipid): did not have any effect; blocking of the biological effect of surface-deposited phosphoglycerol dihydroceramide ([3]; collagen coated on top of PGDHC (2 μg of lipid/well, 10.5 ng/mm^2)): blocked the biological effect
C[C@H](CCC(=O)[O-])[C@H]1CC[C@H]2[C@@H]3[C@H](O)C[C@@H]4C[C@H](O)CC[C@]4(C)[C@H]3C[C@H](O)[C@]12C.[Na+] [sodium cholate, Sodium cholate]	negated the biological effect of bacterial lipid	–
C[C@H](CCC(=O)NCCC[N+](C)(C)CCCS(=O)(=O)[O-])[C@H]1CC[C@H]2[C@@H]3[C@H](O)C[C@@H]4C[C@H](O)CC[C@]4(C)[C@H]3C[C@H](O)[C@]12C [CHAPS, 3-[(3-Cholamidopropyl)dimethylammonio]-1-propanesulfonate]	negated the biological effect of bacterial lipid	–
